# Legend:
# [1] = Aqueous solubility of the compound incubated for 72 hrs by shake-flask method; assay type: physicochemical; conditions: buffer
# [2] = Octanol/water partition coefficient, logP of the compound incubated for 72 hrs by HPLC-MS/MS analysis; assay type: physicochemical
# [3] = Chemical stability of the compound assessed as half life at pH 1.2 by HPLC analysis; assay type: physicochemical; conditions: buffer
# [4] = Chemical stability of the compound assessed as half life at pH 4.5 by HPLC analysis; assay type: physicochemical; conditions: buffer
# [5] = Chemical stability of the compound assessed as half life at pH 6.8 by HPLC analysis; assay type: physicochemical; conditions: buffer
# [6] = Chemical stability of the compound assessed as half life at pH 7.4 by HPLC analysis; assay type: physicochemical; conditions: buffer
# [7] = Chemical stability of the compound in simulated gastric fluid assessed as half life by HPLC analysis; assay type: ADME, physicochemical
# [8] = Chemical stability of the compound in simulated intestinal fluid assessed as half life by HPLC analysis; assay type: ADME, physicochemical
# [9] = Stability in Sprague-Dawley rat intestine homogenates assessed as half life at pH 7.4 by HPLC analysis; assay type: ADME, tissue-based
# [10] = Stability in Sprague-Dawley rat liver homogenates assessed as half life at pH 7.4 by HPLC analysis; assay type: ADME, tissue-based
# [11] = Stability in Sprague-Dawley rat blood homogenates assessed as half life at pH 7.4 by HPLC analysis; assay type: ADME, tissue-based
# [12] = Stability at phase II in rat liver microsomes assessed as half life at 10 uM measured every 10 mins for 70 mins by HPLC-UV analysis; assay type: ADME, Microsome
# [13] = Stability in rat liver microsomes assessed as parent compound remaining at 10 uM measured after 70 mins by HPLC-UV analysis; assay type: ADME, Microsome; conditions: read-out: Stability
# [14] = Drug uptake in human Caco-2 cells over 1 to 100 uM incubated for 10 mins by HPLC-MS/MS analysis; assay type: ADME, cell-based; conditions: caco-2, 10 min, dose 1-100 µM
# [15] = Drug uptake in human Caco-2 cells at 5 uM at pH 7.4 incubated for 10 mins by HPLC-MS/MS analysis; assay type: ADME, cell-based; conditions: caco-2, pH 7.4, 10 min
# [16] = Drug uptake in human Caco-2 cells at 5 uM incubated for 10 mins in presence of Estrone-3-sulfate by HPLC-MS/MS analysis; assay type: ADME, cell-based; conditions: caco-2, 10 min
# [17] = Drug uptake in human Caco-2 cells at 5 uM incubated for 10 mins in presence of fexofenadine by HPLC-MS/MS analysis; assay type: ADME, cell-based; conditions: caco-2, 10 min
# [18] = Drug uptake in human Caco-2 cells at 5 uM at pH 6.0 incubated for 10 mins by HPLC-MS/MS analysis; assay type: ADME, cell-based; conditions: caco-2, pH 6, 10 min
# [19] = Drug uptake in human Caco-2 cells at 5 uM incubated for 10 mins in presence of glycyl-sarcosine by HPLC-MS/MS analysis; assay type: ADME, cell-based; conditions: caco-2, 10 min
# HepG2 = test: Cytotoxicity against human HepG2 cells assessed as reduction in cell viability incubated for 72 hrs by MTT assay; assay type: functional, cell-based
# 4T1 [20] = test: Cytotoxicity against mouse 4T1 cells assessed as reduction in cell viability incubated for 72 hrs by MTT assay; assay type: functional, cell-based
# [21] = Cytotoxicity against mouse 3T3 cells assessed as reduction in cell viability incubated for 72 hrs by MTT assay; assay type: toxicity, cell-based; conditions: NIH3T3 cells
# [22] = Cmax in male Sprague-Dawley rat at 20 mg/kg, po measured up to 12 hrs in presence of fexofenadine by HPLC-MS/MS analysis; assay type: ADME, organism-based; conditions: in vivo, with fexofenadine (dose not stated)
# [23] = Cmax in male Sprague-Dawley rat at 20 mg/kg, po measured up to 12 hrs in presence of glycyl-sarcosine by HPLC-MS/MS analysis; assay type: ADME, organism-based; conditions: in vivo, with glycyl-sarcosine (dose not stated)
# [24] = AUC (0 to t) in male Sprague-Dawley rat at 20 mg/kg, po measured up to 12 hrs in presence of fexofenadine by HPLC-MS/MS analysis; assay type: ADME, organism-based; conditions: in vivo, with fexofenadine (dose not stated)
# [25] = AUC (0 to t) in male Sprague-Dawley rat at 20 mg/kg, po measured up to 12 hrs in presence of glycyl-sarcosine by HPLC-MS/MS analysis; assay type: ADME, organism-based; conditions: in vivo, with glycyl-sarcosine (dose not stated)
# 4T1 [26] = test: Antitumor activity against mouse 4T1 cells xenografted in BALB/c mouse model assessed as reduction in tumor growth administered once daily via oral gavage and measured every two days for 16 days; assay type: functional, cell-based; conditions: dose 35-150 mg/kg, time 16.0 day
# [27] = Toxicity in BALB/c mouse assessed as effect on body weight at 35 to 150 mg/kg, po measured after 16 days; assay type: organism-based; conditions: in vivo, 384 h, dose 35-150 mg/kg, time 16 day
# [28] = Toxicity in BALB/c mouse assessed as effect on ALT level at 35 to 150 mg/kg, po measured after 16 days; assay type: organism-based; conditions: in vivo, 384 h, dose 35-150 mg/kg, time 16 day
# [29] = Toxicity in BALB/c mouse assessed as effect on AST level at 35 to 150 mg/kg, po measured after 16 days; assay type: organism-based; conditions: in vivo, 384 h, dose 35-150 mg/kg, time 16 day
# [30] = Toxicity in BALB/c mouse assessed as effect on CREA level at 35 to 150 mg/kg, po measured after 16 days; assay type: organism-based; conditions: in vivo, 384 h, dose 35-150 mg/kg, time 16 day
# [31] = Toxicity in BALB/c mouse assessed as effect on BUN level at 35 to 150 mg/kg, po measured after 16 days; assay type: organism-based; conditions: in vivo, 384 h, dose 35-150 mg/kg, time 16 day
# [32] = Prodrug conversion in Sprague-Dawley rat assessed as Cmax of cycloicaritin metabolite at 20 mg/kg, po measured up to 12 hrs by HPLC-MS/MS analysis; assay type: ADME, organism-based; conditions: in vivo
# [33] = Prodrug conversion in Sprague-Dawley rat assessed as Tmax of cycloicaritin metabolite at 20 mg/kg, po measured up to 12 hrs by HPLC-MS/MS analysis; assay type: ADME, organism-based; conditions: in vivo
# [34] = Prodrug conversion in Sprague-Dawley rat assessed as half life of cycloicaritin metabolite at 20 mg/kg, po measured up to 12 hrs by HPLC-MS/MS analysis; assay type: ADME, organism-based; conditions: in vivo
# [35] = Prodrug conversion in Sprague-Dawley rat assessed as AUC (0 to t) of cycloicaritin metabolite at 20 mg/kg, po measured up to 12 hrs by HPLC-MS/MS analysis; assay type: ADME, organism-based; conditions: in vivo
# [36] = Cmax in Sprague-Dawley rat at 20 mg/kg, po measured upto 12 hrs by HPLC-MS/MS analysis; assay type: ADME, organism-based; conditions: in vivo
# [37] = Tmax in Sprague-Dawley rat at 20 mg/kg, po measured upto 12 hrs by HPLC-MS/MS analysis; assay type: ADME, organism-based; conditions: in vivo
# [38] = Half life in Sprague-Dawley rat at 20 mg/kg, po measured upto 12 hrs by HPLC-MS/MS analysis; assay type: ADME, organism-based; conditions: in vivo
# [39] = AUC (0 to t) in Sprague-Dawley rat at 20 mg/kg, po measured upto 12 hrs by HPLC-MS/MS analysis; assay type: ADME, organism-based; conditions: in vivo
# [40] = Oral bioavailability in rat; assay type: ADME, organism-based; conditions: in vivo
# [41] = Drug metabolism in rat liver microsomes at 10 uM measured upto 70 mins by HPLC-UV analysis; assay type: ADME, Microsome; conditions: 1.167 h
# [42] = Drug uptake in human Caco-2 cells over 0.5 to 50 uM incubated for 10 mins by HPLC-MS/MS analysis; assay type: ADME, cell-based; conditions: caco-2, 10 min, dose 0.5-50 µM
# [43] = Selectivity ratio of cytotoxicity against human HepG2 cells to cytotoxicity against mouse 4T1 cells
compound,measurement,setting,value
COc1ccc(-c2oc3c4c(cc(O)c3c(=O)c2OC(=O)N[C@H](C(=O)O)C(C)C)OC(C)(C)CC4)cc1,solubility thermodynamic at 72 h,[1],5.69 µM
same,logP at 72 h,[2],2.75
same,half-life,[3],> 12 h
same,half-life,[4],> 12 h
same,half-life,[5],> 12 h
same,half-life,[6],8.17 h
same,half-life,[7],> 12 h
same,half-life,[8],> 12 h
same,half-life,[9],7.22 h
same,half-life,[10],7.99 h
same,half-life,[11],0.47 h
same,half-life at 10 µM,[12],> 1.16 h
same,"remaining at 1.167 h, 10 µM",[13],76%
same,Drug uptake,[14],Not Active
same,Drug uptake,[15],Not Active
same,Drug uptake,[16],Not Active
same,Drug uptake,[17],Not Active
COc1ccc(-c2oc3c4c(cc(O)c3c(=O)c2OC(=O)N[C@@H](Cc2ccccc2)C(=O)O)OC(C)(C)CC4)cc1,solubility thermodynamic at 72 h,[1],2.68 µM
same,logP at 72 h,[2],4.33
same,half-life,[3],> 12 h
same,half-life,[4],> 12 h
same,half-life,[5],> 12 h
same,half-life,[6],6.09 h
same,half-life,[7],> 12 h
same,half-life,[8],> 12 h
same,half-life,[9],5.85 h
same,half-life,[10],6.04 h
same,half-life,[11],0.45 h
same,half-life at 10 µM,[12],> 1.16 h
same,"remaining at 1.167 h, 10 µM",[13],76%
same,Drug uptake,[14],Not Active
COc1ccc(-c2oc3c4c(cc(O)c3c(=O)c2OC(=O)NCC(=O)O)OC(C)(C)CC4)cc1,solubility thermodynamic at 72 h,[1],3.64 µM
same,logP at 72 h,[2],3.66
same,half-life,[3],> 12 h
same,half-life,[4],> 12 h
same,half-life,[5],5.21 h
same,half-life,[6],1.96 h
same,half-life,[7],> 12 h
same,half-life,[8],5.24 h
same,half-life,[9],1.89 h
same,half-life,[10],1.96 h
same,half-life,[11],0.25 h
same,half-life at 10 µM,[12],> 1.16 h
same,"remaining at 1.167 h, 10 µM",[13],76%
same,Drug uptake,[14],Not Active
COc1ccc(-c2oc3c4c(cc(O)c3c(=O)c2OC(=O)N[C@@H](CCC(=O)O)C(=O)O)OC(C)(C)CC4)cc1,solubility thermodynamic at 72 h,[1],1.1 µM
COc1ccc(-c2oc3c4c(cc(O)c3c(=O)c2OC(=O)N[C@@H](CC(C)C)C(=O)O)OC(C)(C)CC4)cc1,solubility thermodynamic at 72 h,[1],13 µM
same,logP at 72 h,[2],3.42
same,half-life,[3],> 12 h
same,half-life,[4],> 12 h
same,half-life,[5],> 12 h
same,half-life,[6],> 12 h
same,half-life,[7],> 12 h
same,half-life,[8],> 12 h
same,half-life,[9],8.67 h
same,half-life,[10],8.6 h
same,half-life,[11],0.5 h
same,half-life at 10 µM,[12],> 1.16 h
same,"remaining at 1.167 h, 10 µM",[13],76%
same,Drug uptake,[14],Not Active
same,Drug uptake,[18],Active
same,Drug uptake,[15],Not Active
same,Drug uptake,[16],Not Active
same,Drug uptake,[17],Not Active
same,Drug uptake,[19],Active
same,Activity,HepG2,Dose-Dependent Effect
same,Activity,4T1 [20],Dose-Dependent Effect
same,IC50 at 72 h,[21],> 100 µM
same,Cmax,[22],47.4 nM
same,Cmax,[23],204 nM
same,AUC(0-t) at 12 h,[24],0.303 µM·h
same,AUC(0-t) at 12 h,[25],0.812 µM·h
same,Activity,4T1 [26],Dose-Dependent Effect
same,Activity,[27],Non-Toxic
same,Activity,[28],Non-Toxic
same,Activity,[29],Non-Toxic
same,Activity,[30],Non-Toxic
same,Activity,[31],Non-Toxic
same,Cmax,[32],66.6 nM
same,Tmax,[33],0.9 h
same,t1/2,[34],6.96 h
same,AUCt,[35],0.1587 µM·h
same,Cmax,[36],156 nM
same,Tmax,[37],1 h
same,half-life,[38],5.34 h
same,AUC(0-t) at 12 h,[39],0.463 µM·h
CC[C@H](C)[C@H](NC(=O)Oc1c(-c2ccc(OC)cc2)oc2c3c(cc(O)c2c1=O)OC(C)(C)CC3)C(=O)O,solubility thermodynamic at 72 h,[1],11.4 µM
same,logP at 72 h,[2],2.69
same,half-life,[3],> 12 h
same,half-life,[4],> 12 h
same,half-life,[5],> 12 h
same,half-life,[6],4.97 h
same,half-life,[7],> 12 h
same,half-life,[8],> 12 h
same,half-life,[9],4.71 h
same,half-life,[10],4.62 h
same,half-life,[11],0.36 h
same,half-life at 10 µM,[12],> 1.16 h
same,"remaining at 1.167 h, 10 µM",[13],76%
same,Drug uptake,[14],Not Active
same,Drug uptake,[15],Not Active
same,Drug uptake,[16],Not Active
same,Drug uptake,[17],Not Active
COc1ccc(-c2oc3c(CC=C(C)C)c(O)cc(O)c3c(=O)c2O)cc1 [ICARITIN],bioavailability,[40],4.3%
COc1ccc(-c2oc3c4c(cc(O)c3c(=O)c2O)OC(C)(C)CC4)cc1,solubility thermodynamic at 72 h,[1],0.81 µM
same,logP at 72 h,[2],3.8
same,half-life,[3],> 12 h
same,half-life,[4],> 12 h
same,half-life,[5],> 12 h
same,half-life,[6],> 12 h
same,half-life,[7],> 12 h
same,half-life,[8],> 12 h
same,half-life,[9],> 12 h
same,half-life,[10],> 12 h
same,half-life,[11],> 12 h
same,half-life at 10 µM,[12],0.62 h
same,Drug metabolism,[41],Metabolite_Detected
same,"remaining at 1.167 h, 10 µM",[13],27%
same,Drug uptake,[42],Active
same,Drug uptake,[18],Active
same,Drug uptake,[15],Active
same,Drug uptake,[16],Active
same,Drug uptake,[17],Active
same,Drug uptake,[19],Active
same,Activity,HepG2,Dose-Dependent Effect
same,Activity,4T1 [20],Dose-Dependent Effect
same,Selectivity ratio,[43],1.8
same,IC50 at 72 h,[21],> 50 µM

# From ChEMBL document CHEMBL5608185, “Design, synthesis and evaluation of carbamate-bridged amino acid prodrugs of cycloicaritin with improved antitumor activity, aqueous solubility and phase II metabolic stability” (Eur J Med Chem, 2024)
